Test results published in patent US8614327B2 (Vertex Pharmaceuticals Incorporated, priority 2004, dated 2013).

Target: T1, ΔF508-CFTR (Homo sapiens, UniProt P13569, DEL508-508)
T1 construct: expressed in transfected cells
Test: Membrane potential optical (FRET/VIPR) assay, identification of potentiator compounds
Format: cell-based
Conditions: Table 3, assay not given; for % Activity: relative efficacy
Outline: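 Double-addition potentiator screen: compound delivered in gluconate-substituted Cl^--free medium, membrane potential followed via CC2-DMPE/DiSBAC2(3) FRET on VIPR. Cells were ΔF508-CFTR-expressing NIH3T3 mouse fibroblasts, held 2 h at 37° C. then 24 h at 27° C. before assay.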

T1 sequence (P13569 with tags, fused parts or gaps DEL508-508): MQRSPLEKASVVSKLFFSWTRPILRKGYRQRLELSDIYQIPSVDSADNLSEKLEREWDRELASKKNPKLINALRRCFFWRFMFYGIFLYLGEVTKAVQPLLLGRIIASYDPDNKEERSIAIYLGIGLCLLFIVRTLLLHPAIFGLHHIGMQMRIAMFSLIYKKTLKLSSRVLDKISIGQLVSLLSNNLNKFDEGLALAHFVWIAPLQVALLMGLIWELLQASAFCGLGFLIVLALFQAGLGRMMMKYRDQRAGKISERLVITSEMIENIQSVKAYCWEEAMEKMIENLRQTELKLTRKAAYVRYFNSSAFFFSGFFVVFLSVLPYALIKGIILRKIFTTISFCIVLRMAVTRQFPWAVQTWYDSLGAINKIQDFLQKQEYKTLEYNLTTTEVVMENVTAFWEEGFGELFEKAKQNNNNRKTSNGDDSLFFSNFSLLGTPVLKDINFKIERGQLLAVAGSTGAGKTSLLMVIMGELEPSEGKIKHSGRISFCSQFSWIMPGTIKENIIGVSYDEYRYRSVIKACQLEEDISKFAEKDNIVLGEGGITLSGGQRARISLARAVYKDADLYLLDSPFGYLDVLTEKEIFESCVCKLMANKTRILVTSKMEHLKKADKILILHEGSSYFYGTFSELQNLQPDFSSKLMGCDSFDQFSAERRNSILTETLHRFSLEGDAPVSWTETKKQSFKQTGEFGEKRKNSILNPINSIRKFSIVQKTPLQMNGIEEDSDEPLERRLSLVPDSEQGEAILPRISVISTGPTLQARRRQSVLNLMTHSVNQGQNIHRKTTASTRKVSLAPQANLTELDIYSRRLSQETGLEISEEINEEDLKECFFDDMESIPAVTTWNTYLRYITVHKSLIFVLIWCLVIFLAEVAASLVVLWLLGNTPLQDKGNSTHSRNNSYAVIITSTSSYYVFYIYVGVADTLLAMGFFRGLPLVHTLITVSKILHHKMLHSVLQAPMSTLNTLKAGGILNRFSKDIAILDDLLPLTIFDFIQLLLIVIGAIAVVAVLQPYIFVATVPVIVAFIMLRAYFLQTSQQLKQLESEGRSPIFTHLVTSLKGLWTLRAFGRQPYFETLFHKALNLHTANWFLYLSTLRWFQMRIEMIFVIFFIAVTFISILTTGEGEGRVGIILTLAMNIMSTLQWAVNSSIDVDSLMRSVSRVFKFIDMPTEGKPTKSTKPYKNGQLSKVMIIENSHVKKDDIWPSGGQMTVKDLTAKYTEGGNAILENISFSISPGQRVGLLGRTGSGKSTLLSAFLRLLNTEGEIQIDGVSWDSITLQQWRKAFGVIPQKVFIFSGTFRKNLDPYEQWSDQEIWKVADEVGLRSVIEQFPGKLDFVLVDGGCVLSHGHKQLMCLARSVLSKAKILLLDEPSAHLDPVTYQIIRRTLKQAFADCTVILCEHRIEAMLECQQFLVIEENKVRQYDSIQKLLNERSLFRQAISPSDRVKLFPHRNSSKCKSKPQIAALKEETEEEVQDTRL

Row | SMILES | EC50 [µM] | % Activity
1 | Cc1cccc2[nH]cc(C(=O)Nc3ccc(N4[C@H](C)CC[C@@H]4C)cc3C(F)(F)F)c(=O)c12 [Compound 592, N-(4-((2R,5S)-2,5-dimethylpyrrolidin-1-yl)-2-(trifluoromethyl)phenyl)-5-methyl-4-oxo-1,4-dihydroquinoline-3-carboxamide] | < 10 | ++ (between 25% to 100%)
2 | O=C(Nc1cc(N2CCCC2)cc(C(F)(F)F)c1)c1c[nH]c2ccccc2c1=O [Compound 593, 4-oxo-N-[3-pyrrolidin-1-yl-5-(trifluoromethyl)phenyl]-1H-quinoline-3-carboxamide] | < 10 | ++ (between 25% to 100%)
3 | CC(C)(C)c1ccc(NC(=O)c2c[nH]c3ccccc3c2=O)c(C(C)(C)C)c1O [Compound 594, N-(3-hydroxy-2,4-ditert-butyl-phenyl)-4-oxo-1H-quinoline-3-carboxamide] | < 10 | +++ (>100%)
4 | Cc1cccc2[nH]cc(C(=O)Nc3ccc(OC4CCCC4)cc3C(F)(F)F)c(=O)c12 [Compound 595, N-[4-cyclopentoxy-2-(trifluoromethyl)phenyl]-5-methyl-4-oxo-1H-quinoline-3-carboxamide] | < 10 | ++ (between 25% to 100%)
5 | O=C(Nc1cc2[nH]ccc2cc1F)c1c[nH]c2cccc(O)c2c1=O [Compound 596, N-(5-fluoro-1H-indol-6-yl)-5-hydroxy-4-oxo-1H-quinoline-3-carboxamide] | < 10 | ++ (between 25% to 100%)
6 | CC(C)c1ccc(NC(=O)c2c[nH]c3ccc(F)cc3c2=O)cc1O [Compound 597, 6-fluoro-N-(3-hydroxy-4-isopropyl-phenyl)-4-oxo-1H-quinoline-3-carboxamide] |  | ++ (between 25% to 100%)
7 | O=C(Nc1ccc(N2CCOCC2)cc1C(F)(F)F)c1c[nH]c2ccccc2c1=O [Compound 598, N-[4-morpholino-2-(trifluoromethyl)phenyl]-4-oxo-1H-quinoline-3-carboxamide] | < 10 | +++ (>100%)
8 | O=C(Nc1cc(O)cc(C(F)(F)F)c1)c1c[nH]c2cccc(O)c2c1=O [Compound 599, 5-hydroxy-N-[3-hydroxy-5-(trifluoromethyl)phenyl]-4-oxo-1H-quinoline-3-carboxamide] | < 10 | ++ (between 25% to 100%)
9 | CC(C)(C)OC(=O)Nc1ccc(NC(=O)c2c[nH]c3ccccc3c2=O)c(C(F)(F)F)c1 [Compound 600, tert-butyl [[4-[(4-oxo-1H-quinolin-3-yl)carbonylamino]-3-(trifluoromethyl)phenyl]amino]formate] | < 10 | ++ (between 25% to 100%)
10 | COc1ccc2[nH]cc(C(=O)Nc3ccc(N4CCC[C@@H]4C)cc3C(F)(F)F)c(=O)c2c1 [Compound 601, (S)-6-methoxy-N-(4-(2-methylpyrrolidin-1-yl)-2-(trifluoromethyl)phenyl)-4-oxo-1,4-dihydroquinoline-3-carboxamide] | < 10 | ++ (between 25% to 100%)
11 | CC(C)(C)c1cccc(NC(=O)c2c[nH]c3ccccc3c2=O)c1 [Compound 602, 4-oxo-N-(3-tert-butylphenyl)-1H-quinoline-3-carboxamide] | < 10 | ++ (between 25% to 100%)
12 | CC(=O)c1ccc2c(=O)c(C(=O)Nc3cc(O)c(C(C)(C)C)cc3C(C)(C)C)c[nH]c2c1 [Compound 604, 7-acetyl-N-(5-hydroxy-2,4-ditert-butyl-phenyl)-4-oxo-1H-quinoline-3-carboxamide] | < 10 | ++ (between 25% to 100%)
13 | CCc1cccc2c(=O)c(C(=O)Nc3cc(O)c(C(C)(C)C)cc3F)c[nH]c12 [Compound 605, 8-ethyl-N-(2-fluoro-5-hydroxy-4-tert-butyl-phenyl)-4-oxo-1H-quinoline-3-carboxamide] | 10 to 25 | + (<25%)
14 | CC1(c2ccc(NC(=O)c3c[nH]c4cccc(O)c4c3=O)cc2O)CCCCC1 [Compound 606, 5-hydroxy-N-[3-hydroxy-4-(1-methylcyclohexyl)-phenyl]-4-oxo-1H-quinoline-3-carboxamide] | < 10 | + (<25%)
15 | Cc1ccc2c(=O)c(C(=O)Nc3ccc(N4CCC[C@@H]4C)cc3C(F)(F)F)c[nH]c2c1 [Compound 607, (S)-7-methyl-N-(4-(2-methylpyrrolidin-1-yl)-2-(trifluoromethyl)phenyl)-4-oxo-1,4-dihydroquinoline-3-carboxamide] | < 10 | ++ (between 25% to 100%)

Second part, the compound after the results:

Row | EC50 [µM] | % Activity | SMILES
16 | < 10 | ++ (between 25% to 100%) | O=C(Nc1cc(O)c(Cl)cc1Cl)c1c[nH]c2ccccc2c1=O [Compound 608, N-(2,4-dichloro-5-hydroxy-phenyl)-4-oxo-1H-quinoline-3-carboxamide]
17 | < 10 | ++ (between 25% to 100%) | CC(C)(C)c1ccc(O)cc1NC(=O)c1c[nH]c2cccc(O)c2c1=O [Compound 609, 5-hydroxy-N-(5-hydroxy-2-tert-butyl-phenyl)-4-oxo-1H-quinoline-3-carboxamide]
18 | < 10 | ++ (between 25% to 100%) | CC(C)(C)c1cc(F)c(NC(=O)c2c[nH]c3cccc(F)c3c2=O)cc1O [Compound 610, 5-fluoro-N-(2-fluoro-5-hydroxy-4-tert-butyl-phenyl)-4-oxo-1H-quinoline-3-carboxamide]
19 | < 10 | +++ (>100%) | COc1cc2c(=O)c(C(=O)Nc3cc4[nH]ccc4cc3C(C)(C)C)c[nH]c2cc1F [Compound 611, 7-fluoro-6-methoxy-4-oxo-N-(5-tert-butyl-1H-indol-6-yl)-1H-quinoline-3-carboxamide]
20 | < 10 | ++ (between 25% to 100%) | CC1(C)CCCN(c2ccc(NC(=O)c3c[nH]c4ccccc4c3=O)c(C(F)(F)F)c2)C1 [Compound 612, N-[4-(3,3-dimethyl-1-piperidyl)-2-(trifluoromethyl)phenyl]-4-oxo-1H-quinoline-3-carboxamide]
21 | < 10 | ++ (between 25% to 100%) | Cc1cccc2[nH]cc(C(=O)Nc3ccc(N4CC[C@@H](C)C4)cc3C(F)(F)F)c(=O)c12 [Compound 613, (R)-5-methyl-N-(4-(3-methylpyrrolidin-1-yl)-2-(trifluoromethyl)phenyl)-4-oxo-1,4-dihydroquinoline-3-carboxamide]
22 | < 10 | ++ (between 25% to 100%) | O=C(Nc1ccc(Oc2cccnc2)cc1)c1c[nH]c2ccccc2c1=O [Compound 614, 4-oxo-N-[4-(3-pyridyloxy)phenyl]-1H-quinoline-3-carboxamide]
23 | < 10 | +++ (>100%) | Cc1cc(N2CCCC2)ccc1NC(=O)c1c[nH]c2ccccc2c1=O [Compound 615, N-(2-methyl-4-pyrrolidin-1-yl-phenyl)-4-oxo-1H-quinoline-3-carboxamide]
24 | 10 to 25 | + (<25%) | CCOc1cccc2c(=O)c(C(=O)Nc3cc(O)c(C(C)(C)C)cc3C(C)(C)C)c[nH]c12 [Compound 616, 8-ethoxy-N-(5-hydroxy-2,4-ditert-butyl-phenyl)-4-oxo-1H-quinoline-3-carboxamide]
25 | < 10 | +++ (>100%) | COc1cc2[nH]cc(C(=O)Nc3cc(O)c(C(C)(C)C)cc3C(C)(C)C)c(=O)c2cc1F [Compound 617, 6-fluoro-N-(5-hydroxy-2,4-ditert-butyl-phenyl)-7-methoxy-4-oxo-1H-quinoline-3-carboxamide]
26 | < 10 | ++ (between 25% to 100%) | C[C@H]1CCCN1c1ccc(NC(=O)c2c[nH]c3ccccc3c2=O)c(C(F)(F)F)c1 [Compound 618, (S)-N-(4-(2-methylpyrrolidin-1-yl)-2-(trifluoromethyl)phenyl)-4-oxo-1,4-dihydroquinoline-3-carboxamide]
27 | < 10 | +++ (>100%) | O=C(Nc1cc(O)c(C2CCCCC2)cc1C(F)(F)F)c1c[nH]c2ccccc2c1=O [Compound 619, N-[4-cyclohexyl-5-hydroxy-2-(trifluoromethyl)phenyl]-4-oxo-1H-quinoline-3-carboxamide]
28 | < 10 | + (<25%) | Cc1cccc2c(=O)c(C(=O)Nc3cc(O)c(C(C)(C)C)cc3C(C)(C)C)c[nH]c12 [Compound 621, N-(5-hydroxy-2,4-ditert-butyl-phenyl)-8-methyl-4-oxo-1H-quinoline-3-carboxamide]
29 | < 10 | ++ (between 25% to 100%) | N#Cc1cc(N2CCCC2)ccc1NC(=O)c1c[nH]c2ccccc2c1=O [Compound 622, N-(2-cyano-4-pyrrolidin-1-yl-phenyl)-4-oxo-1H-quinoline-3-carboxamide]
30 | < 10 | ++ (between 25% to 100%) | CC(C)(C)c1cc(C(C)(C)C)c(NC(=O)c2c[nH]c3ccc(Cl)cc3c2=O)cc1O [Compound 623, 6-chloro-N-(5-hydroxy-2,4-ditert-butyl-phenyl)-4-oxo-1H-quinoline-3-carboxamide]
31 | < 10 | ++ (between 25% to 100%) | Cc1ccc2[nH]cc(C(=O)Nc3cc(O)c(C4(C)CCCCC4)cc3F)c(=O)c2c1 [Compound 624, N-[2-fluoro-5-hydroxy-4-(1-methylcyclohexyl)-phenyl]-6-methyl-4-oxo-1H-quinoline-3-carboxamide]
32 | < 10 | + (<25%) | Cc1cccc2c(=O)c(C(=O)Nc3cc(O)c(C(C)(C)C)cc3F)c[nH]c12 [Compound 625, N-(2-fluoro-5-hydroxy-4-tert-butyl-phenyl)-8-methyl-4-oxo-1H-quinoline-3-carboxamide]
33 | < 10 | ++ (between 25% to 100%) | Cc1cccc2[nH]cc(C(=O)Nc3ccc(N4CC[C@H](F)C4)cc3C(F)(F)F)c(=O)c12 [Compound 626, (S)-N-(4-(3-fluoropyrrolidin-1-yl)-2-(trifluoromethyl)phenyl)-5-methyl-4-oxo-1,4-dihydroquinoline-3-carboxamide]
